From patent publication US20260274895A1, “DE NOVO DESIGNED MEMBRANE-TRAVERSING AND ORALLY BIOAVAILABLE MACROCYCLES” (UNIVERSITY OF WASHINGTON, priority 2022, published 2026)
Where a SMILES comes first, the peptide text is derived from it. [ ]: non-standard residue; d: D form. NMeF = CN[C@@H](Cc1ccccc1)C(=O)O; dNMeF = CN[C@H](Cc1ccccc1)C(=O)O; NMeL = CN[C@@H](CC(C)C)C(=O)O; dNMeL = CN[C@H](CC(C)C)C(=O)O; NMeV = CN[C@H](C(=O)O)C(C)C; NMeA = CN[C@@H](C)C(=O)O; Nle = CCCC[C@H](N)C(=O)O; dNMeA = CN[C@H](C)C(=O)O; Aib = CC(C)(N)C(=O)O

Settings: for PAMPA_Papp_Avg (apparent permeability): PAMPA

Compound	PAMPA_Papp_Avg (apparent permeability) [nm/s]	membrane permeability in PAMPA (in words)
CC[C@@H](C)[C@H]1NC(=O)[C@@H](CC(C)C)NC(=O)[C@@H]2CCCN2C(=O)[C@H]2CCCN2C(=O)[C@@H](C(C)C)NC(=O)[C@H](C)NC(=O)[C@@H]2CCCN2C(=O)[C@@H]([C@H](C)CC)NC(=O)[C@@H](C)N(C)C1=O [Design D9.23, i*aiPAVpPl] (cyclo([dL][dI][dNMeA][dI]PA[dV][dP]P))	1.41	
CC(C)C[C@H]1C(=O)N2CCC[C@@H]2C(=O)N[C@@H](Cc2ccccc2)C(=O)N2CCC[C@H]2C(=O)N[C@H](C(C)C)C(=O)N[C@H](Cc2ccccc2)C(=O)N1C (single isomer, unassigned) [Design D6.9.p2, vf*LpFP]	67.7	
CC[C@H](C)[C@@H]1NC(=O)[C@@H](C(C)C)NC(=O)[C@H](CC(C)C)N(C)C(=O)[C@H]2CCCN2C(=O)[C@H]2CCCN2C(=O)[C@H](C(C)C)NC(=O)[C@@H](CC(C)C)NC(=O)[C@H]2CCCN2C1=O [Design D8.16, plVpp*LvI] (cyclo(I[dP][dL]V[dP][dP][NMeL][dV]))	21.6	
CC[C@@H](C)[C@H]1NC(=O)[C@@H](CC(C)C)NC(=O)C(C)(C)NC(=O)[C@@H]2CCCN2C(=O)[C@@H]([C@H](C)CC)NC(=O)[C@@H](CC(C)C)NC(=O)C(C)(C)NC(=O)[C@@H]2CCCN2C1=O [Design D8.2, PBliPBLi] (cyclo([Aib][dL][dI]P[Aib][dL][dI]P))	74.9	
CC[C@H](C)[C@@H]1NC(=O)CNC(=O)[C@@H]2CCCN2C(=O)[C@H]2CCCN2C(=O)[C@H]([C@@H](C)CC)NC(=O)[C@@H](C)N(C)C(=O)[C@@H]2CCCN2C(=O)[C@H](C(C)C)NC(=O)[C@@H](CC(C)C)NC1=O [Design D9.33, pPGIlVP*aI] (cyclo(GI[dL]VP[dNMeA]I[dP]P))	3.17	
CCCC[C@@H]1NC(=O)[C@H](C(C)C)NC(=O)[C@H]2CCCN2C(=O)[C@@H]2CCCN2C(=O)[C@H](C)NC(=O)[C@@H](C)N(C)C(=O)[C@@H](CC(C)C)N(C)C(=O)[C@@H](C(C)C)NC(=O)[C@@H]2CCCN2C1=O [Design D9.21, APpVMPv*l*a] (cyclo(AP[dP]V[Nle]P[dV][dNMeL][dNMeA]))	2.94	
CC[C@@H](C)[C@H]1NC(=O)[C@H](CC(C)C)NC(=O)[C@@H](CC(C)C)NC(=O)[C@H](C(C)C)NC(=O)[C@@H](Cc2ccccc2)N(C)C(=O)[C@@H]2CCCN2C(=O)[C@@H](CC(C)C)NC(=O)[C@H](CC(C)C)N(C)C(=O)[C@H]2CCCN2C1=O [Design D9.3, Lip*LlP*fVl] (cyclo(L[dI][dP][NMeL][dL]P[dNMeF]V[dL]))	23.3	
CC(C)C[C@@H]1NC(=O)[C@@H](CC(C)C)NC(=O)[C@@H](CC(C)C)N(C)C(=O)[C@@H](CC(C)C)N(C)C(=O)[C@H](C(C)C)NC(=O)[C@@H](C)N(C)C(=O)[C@@H]2CCCN2C(=O)[C@@H]2CCCN2C(=O)[C@@H](C)N(C)C1=O [Design D9.19, P*aV*l*llL*aP] (cyclo(L[dNMeA]PP[dNMeA]V[dNMeL][dNMeL][dL]))	12.8	
CC(C)C[C@@H]1C(=O)N[C@H](C(C)C)C(=O)N[C@H](C)C(=O)N2CCC[C@@H]2C(=O)N(C)[C@H](CC(C)C)C(=O)N[C@H](C(C)C)C(=O)N[C@H](C)C(=O)N2CCC[C@@H]2C(=O)N1C [Design D8.31, ap*lvap*lv] (cyclo([dA][dP][dNMeL][dV][dA][dP][dNMeL][dV]))		membrane permeable
CC[C@H](C)[C@@H]1NC(=O)[C@H](Cc2ccccc2)N(C)C(=O)[C@H](CC(C)C)N(C)C(=O)[C@@H](C(C)C)NC(=O)[C@@H](C)NC(=O)[C@@H]2CCCN2C(=O)[C@@H](CC(C)C)NC(=O)[C@@H]2CCCN2C(=O)[C@H](C)NC1=O [Design D9.6, Pav*L*FIAPl] (cyclo(AP[dL]P[dA][dV][NMeL][NMeF]I))	16.3	

Next, values leading:

PAMPA_Papp_Avg (apparent permeability) [nm/s]	membrane permeability in PAMPA (in words)	Compound
47.8		CC[C@@H](C)[C@H]1NC(=O)[C@H](Cc2ccccc2)NC(=O)[C@@H](CC(C)C)N(C)C(=O)[C@@H]2CCCN2C(=O)[C@@H](C(C)C)NC(=O)[C@@H](C)N(C)C(=O)[C@H]2CCCN2C(=O)[C@@H](CC(C)C)NC(=O)[C@H](CC(C)C)NC(=O)[C@@H]2CCCN2C1=O [Design D10.30, P*lFiPLlp*av] (cyclo(F[dI]PL[dL][dP][dNMeA][dV]P[dNMeL]))
4.41		CC(C)C[C@@H]1C(=O)N(C)[C@H](C)C(=O)N(C)[C@@H](C(C)C)C(=O)N2CCC[C@@H]2C(=O)N[C@H](C)C(=O)N[C@@H](Cc2ccccc2)C(=O)N2CCC[C@@H]2C(=O)N2CCC[C@H]2C(=O)N[C@H](C(C)C)C(=O)N[C@@H](C(C)C)C(=O)N1C [Design D10.29, FpPvV*l*a*Vpa] (cyclo([dV]V[dNMeL][dNMeA][NMeV][dP][dA]F[dP]P))
2.38		CCCC[C@@H]1NC(=O)[C@H]2CCCN2C(=O)[C@H](C(C)C)NC(=O)[C@@H](CC(C)C)N(C)C(=O)[C@H](Cc2ccccc2)NC(=O)[C@H](CC(C)C)NC(=O)[C@@H](CC(C)C)N(C)C(=O)[C@@H]2CCCN2C(=O)[C@@H](CC(C)C)NC1=O [Design D9.40, pMlP*lLF*lV] (cyclo(F[dNMeL]V[dP][Nle][dL]P[dNMeL]L))
42.3		C[C@H]1NC(=O)[C@@H](Cc2ccccc2)NC(=O)[C@H](Cc2ccccc2)N(C)C(=O)[C@H](Cc2ccccc2)N(C)C(=O)[C@@H](Cc2ccccc2)NC(=O)[C@H]2CCCN2C(=O)CNC(=O)[C@@H](C)NC(=O)[C@@H]2CCCN2C(=O)[C@@H](Cc2ccccc2)NC1=O [Design D10.62, aGpf*F*FfafP] (cyclo(G[dP][dF][NMeF][NMeF][dF][dA][dF]P[dA]))
20.9		CC(C)C[C@@H]1C(=O)N(C)[C@@H](CC(C)C)C(=O)N2CCC[C@@H]2C(=O)N[C@H](CC(C)C)C(=O)N[C@H](C)C(=O)N2CCC[C@@H]2C(=O)N2CCC[C@H]2C(=O)N[C@@H](C)C(=O)N[C@H](Cc2ccccc2)C(=O)N[C@H](CC(C)C)C(=O)N[C@@H](C(C)C)C(=O)N1C (single isomer, unassigned) [Design D11.9.p2, V*l*LplapPAfl]
1.84		CC(C)C[C@@H]1C(=O)N[C@@H](C)C(=O)N[C@H](CC(C)C)C(=O)N(C)[C@@H](C)C(=O)N2CCC[C@@H]2C(=O)N2CCC[C@@H]2C(=O)N2CCC[C@@H]2C(=O)N2CCC[C@H]2C(=O)N[C@H](C(C)C)C(=O)N(C)[C@@H](CC(C)C)C(=O)N1C [Design D10.28, l*ApppPv*L*lA] (cyclo([dV][NMeL][dNMeL]A[dL][NMeA][dP][dP][dP]P))
6.54		CC[C@@H](C)[C@H]1NC(=O)[C@@H](Cc2ccccc2)NC(=O)[C@H](CC(C)C)NC(=O)[C@@H](C)N(C)C(=O)[C@@H](CC(C)C)NC(=O)[C@H](CC(C)C)NC(=O)[C@H]2CCCN2C(=O)[C@@H]2CCCN2C(=O)[C@@H](C)NC(=O)[C@H]2CCCN2C1=O [Design D10.37, l*aLfipaPpL] (cyclo(L[dF][dI][dP][dA]P[dP]L[dL][dNMeA]))
34.8		CC[C@@H](C)[C@H]1NC(=O)[C@@H]2CCCN2C(=O)[C@@H]([C@H](C)CC)NC(=O)[C@@H](C)N(C)C(=O)[C@H](CC(C)C)NC(=O)[C@@H](Cc2ccccc2)NC(=O)[C@H](CC(C)C)N(C)C(=O)[C@H]2CCCN2C(=O)[C@@H](CC(C)C)NC(=O)[C@H](CC(C)C)NC(=O)[C@H]2CCCN2C1=O [Design D11.1, ipLlp*LfL*aiP] (cyclo(L[dL][dP][NMeL][dF]L[dNMeA][dI]P[dI][dP]))
